The record followed here is patent US5476848A, “14B(R) isomers of novel tetracyclic compounds having anti-allergic and anti-asthmatic activities, and their use” (Sankyo Company, Limited, priority 1989, dated 1995).

Structures can show the parent of a compound that is named as a salt.

The test system of test [1] is Passive Cutaneous Anaphylaxis (PCA). The test is described as follows: Inhibitory effect on passive cutaneous anaphylaxis (PCA) in rats (Test Example 1). It is filed as in vivo, rat (male SD). Particulars: Rattus norvegicus, po, read-out: Inhibitory rate. The protocol:
Male SD rats (5 weeks old) were used as the test animals in groups, each containing 4 animals. The rats were sensitized by intradermal injection of 0.05 ml of the diluted antiserum solution in the dorsal position. 48 hours after this injection, a suspension of the test compound in an aqueous 0.5% w/v tragacanth solution was orally administered to the rats, fasted for one day, and 60 minutes later they were injected in the caudal vein with 5 ml/kg body weight of physiological saline containing 0.4% w/v egg albumin and 1.0% w/v Evans Blue.
The inhibitory rate was calculated by the following equation.
Inhibitory rate (%)=(1-B/A)×100
A: amount of exuded dye in the control group
B: amount of exuded dye in the test group.

Test [2] deals with Antigen-induced Bronchoconstriction. The test is described as follows: Effect on antigen-induced bronchoconstriction in sensitized guinea pigs (Test Example 2). It is filed as in vivo, guinea pig (male Hartley). The note with it: Cavia porcellus, po, 60 min before challenge, read-out: Inhibitory rate. The protocol: The test animals used were male guinea pigs of the Hartley strain (weighing about 400 to 500 g). These animals were sensitized according to Morris' method [H. R. Morris; Br. J. Pharmac., 67, 179-184 (1979)]. The guinea pigs were subcutaneously and intraperitoneally injected twice, each time with 25 mg of egg albumin (grade 5, Sigma) at weekly intervals. 7 days after the second of these weekly injections, the animals were fasted for one day and then exposed to an aerosol of egg albumin (10 mg/ml). All of the animals so exposed responded with convulsions, indicating respiratory distress due to airway constriction, within 6 minutes.
60 minutes before the egg albumin challenge, one of the test compounds shown in the following Table 5 was administered orally to each of the animals.

Another test concerns eosinophil accumulation. Briefly: Inhibitory effect on antigen induced eosinophil accumulation (Test Example 4).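 On all read-outs here: oral dose 0.1 mg/kg.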 It is filed as in vivo, guinea pig (male Hartley). The note with it: po, 1 hr before antigen challenge, BALF 24 hr after; for inhibition at 0.1 mg/kg: Cavia porcellus, Eosinophil; for Inhibitory effect (%) on accumulation of eosinophil: 0.1 mg/kg. On the procedure: Male Hartley guinea pigs weighing approximately 400 g were sensitized with ovalbumin by the method described by Engineer et al. (Engineer, D. M. et al., J. Pharmacol., 62, 61-66 (1978)), and the number of eosinophils infiltrating into the bronchoalveolar space due to antigen challenge was examined.
Briefly, the animals were exposed to the antigen (ovalbumin) for 6 min. At 24 hr. after antigen challenge, the guinea pigs were anesthetized with pentobarbital (30 mg/kg, i.p.). The trachea was cannulated by a disposable intravenous catheter, and the airway lumen (especially in the right posterior lobe) was washed with 0.9% saline (10 ml/kg) kept at 37° C. The bronchoalveolar lavage fluid (BALF) from each animal was centrifuged (150 g for 10 min at 4° C.). After removing the supernatant, the cell pellet was resuspended in HBSS (Hank's balanced solution) and a total cell count was performed using a standard hemocytometer. Differential cell counts were done on smears fixed in methanol and stained with Wright-Giemsa solution, and by light microscopy under oil immersion (×1000). The proportion of eosinophil population was expressed as a percentage of total cells, and this ratio together with the total cell count was used to calculate the total number of eosinophils. The percent inhibition of the test compounds which was administered 1 hr before antigen challenge, was calculated as follows:
Percent inhibition=[1-(C-A)/(B-A)]×100
A: negative control: mean value of cell counts in BALF from the animals with inhaled saline
B: positive control: mean value of cell counts in BALF from the animals 24 h after antigen challenge
C: cell counts of BALF for the animals pretreated with a test compound 24 h after antigen challenge

The subject of the next test is eosinophil chemotaxis. Briefly: Inhibitory effect of eosinophil chemotaxis to zymosan-activated serum (Test Example 4). In kind it is cell-based, guinea pig. Particulars: for inhibition at 0.1 µg/mL: Cavia porcellus, Eosinophil; for inhibition at 0.1 µg/mL / Inhibitory effect (%) on chemotaxis of eosinophil: 0.1 μg/ml, ZAS; for potency of the R-isomer relative to the racemate: eosinophil table, R-isomer vs racemate. The source says: Eosinophils were harvested from the peritoneal cavity of polymyxin B-treated guinea pigs (body weight, approx. 400 g) according to the method described by Pincus (Pincus, S. H. et al.: Blood, 52, 127-134 (1978)). The eosinophils were separated and purified by Ficoll-paque (Pharmacia) density gradient centrifugation. Then, the eosinophil chemotaxis to zymosan-activated serum (ZAS) was investigated by a modification of the Boyden micropore filter technique (Gosset, P. et al.: Clin. Exp. Immunol., 65, 654-663 (1986)). Briefly, the assay was carried out in a 48-well microchemotaxis assembly (Neuroprobe; Cabin John, Md., U.S.A.). Cell suspensions were adjusted to 2.5×10^5 /50 μl, and placed in the upper chamber separated from the chemoattractant (ZAS) solution in the lower chamber by a 3 μm pore size polycarbonate membrane filter (Nucleopore Co., Pleasanton, U.S.A.). The cells were incubated for 10 min at 37° C. with the test compounds, prior to their addition to the chemotaxis chamber. Migration was carried out at 37° C. in humidified air with 5% CO2 for 2 h. After the incubation, the migrated eosinophils in the lower Chamber were counted by a hemocytometer.
The percentage inhibition obtained with the test compound was calculated by comparison to the positive control (migration of non-treated cells in response to the ZAS), according to the formula:
Percent inhibition=[1-(A/B)]×100
A: (migration with a test compound)-(spontaneous migration)
B: (positive control migration)-(spontaneous migration)

Take `CN(C)C(=O)COCCN1CCN2c3ccccc3Cc3ccccc3C2C1` (stereo not drawn) [Example 27, α-[2-(1,2,3,4,10,14b-Hexahydrodibenzo[c,f]pyrazino[1,2-a]azepin-2-yl)ethoxy]-N,N-dimethylacetamide]: the inhibition at 3.1 mg/kg in test [1] turned out to be 69%.

Consider `O=C(O)COCCN1CCN2c3ccccc3Cc3ccccc3[C@H]2C1` [Example 59, (S)-2-(1,2,3,4,10,14b-Hexahydrodibenzo[c,f]pyrazino[1,2-a]azepin-2-yl)ethoxyacetic Acid], for which, in test [1], the inhibition at 0.05 mg/kg stood at 59% and the inhibition at 0.2 mg/kg was 74%. The inhibition at 0.05 mg/kg in test [2] (0.05 mg/kg) was determined as 60%.

`O=C(O)CCCN1CCN2c3ccccc3Cc3ccccc3[C@H]2C1` [22 HCl S-isomer]: in the test on eosinophil accumulation, the inhibition at 0.1 mg/kg was 47%. The inhibition at 0.1 µg/mL in the test with eosinophil chemotaxis was 5%.

As to `O=C(O)COCCN1CCN2c3ccccc3Cc3ccccc3[C@@H]2C1` [Example 65, (R)-2-(1,2,3,4,10,14b-hexahydrodibenzo[c,f]pyrazino[1,2-a]azepin-2-yl)ethoxyacetic acid monohydrate], the inhibition at 0.05 mg/kg in test [1] stood at 45%. Further, the inhibition at 0.4 mg/kg in test [1] (0.4 mg/kg) is 58%. Besides, in test [2] (0.1 mg/kg), the inhibition at 0.1 mg/kg came to 60%.

For the molecule `CCOC(=O)CCCCCN1CCN2c3ccccc3Cc3ccccc3[C@@H]2C1` [21 HCl R-isomer], the inhibition at 0.1 mg/kg in the test with eosinophil accumulation was 80%. Also, in the test on eosinophil chemotaxis, the inhibition at 0.1 µg/mL was 50% and the “potency of the R-isomer relative to the racemate” value is “about double the potency”.

With `COC(=O)COCCN1CCN2c3ccc(Br)cc3Cc3ccccc3C2C1` (stereo not drawn) [Example 5, Methyl 2-(8-bromo-1,2,3,4,10,14b-hexahydrodibenzo[c,f]pyrazino[1,2-a]azepin-2-yl)ethoxyacetate], in test [1], the inhibition at 0.8 mg/kg stood at 23% and the inhibition at 3.1 mg/kg was determined as 67%.

Regarding `O=C(O)CCCN1CCN2c3ccccc3Cc3ccccc3C2C1` (racemic) [22 free racemate], the “Inhibitory effect (%) on accumulation of eosinophil” value in the test with eosinophil accumulation was 3%. For the same molecule, the inhibition at 0.1 µg/mL with eosinophil chemotaxis was found to be 9%.

For the molecule `CCOC(=O)CCCN1CCN2c3ccccc3Cc3ccccc3[C@@H]2C1` [19 HCl R-isomer], the “Inhibitory effect (%) on accumulation of eosinophil” value with eosinophil accumulation worked out at 58%. Further, the “Inhibitory effect (%) on chemotaxis of eosinophil” value with eosinophil chemotaxis was found to be 43%.

Turning to `O=C(O)CCCCCN1CCN2c3ccccc3Cc3ccccc3[C@@H]2C1` [24 HCl R-isomer], the inhibition at 0.1 mg/kg with eosinophil accumulation was 62%. In addition, in the test on eosinophil chemotaxis, the inhibition at 0.1 µg/mL turned out to be 47% and the “potency of the R-isomer relative to the racemate” value is recorded as “about double the potency”.

In the case of `O=C(O)COCCN1CCN2c3ccc(Br)cc3Cc3ccccc3C2C1` (stereo not drawn) [Example 10], in test [1], the inhibition at 3.1 mg/kg was found to be 53%.

Consider `CCOC(=O)CCCN1CCN2c3ccccc3Cc3ccccc3C2C1` (racemic) [Example 19, Ethyl 4-(1,2,3,4,10,14b-hexahydrodibenzo[c,f]pyrazino[1,2-a]azepin-2-yl)butanoate], for which, in test [1], the inhibition at 0.05 mg/kg amounted to 55% and the inhibition at 0.2 mg/kg amounted to 61%. Also, the inhibition at 0.025 mg/kg in test [2] (0.025 mg/kg) came out at 40%. For the same molecule, the inhibition at 0.4 mg/kg in test [2] is 100%.

On to `O=C(O)COCCN1CCN2c3ncccc3Cc3ccccc3C2C1` (stereo not drawn) [Example 11, 2-(1,2,3,4,10,14b-Hexahydrobenzo[c]pyrazino[1,2-a]pyrido[5,6-c]azepin-2-yl)ethoxyacetic acid], for which, in test [1], the inhibition at 0.8 mg/kg amounted to 49% and the inhibition at 3.1 mg/kg was 60%.

As to `CCOC(=O)CCCN1CCN2c3ccccc3Cc3ccccc3C2C1` (racemic) [19 HCl racemate], the “Inhibitory effect (%) on accumulation of eosinophil” value in the test on eosinophil accumulation is listed as 48%. The “Inhibitory effect (%) on chemotaxis of eosinophil” value in the test on eosinophil chemotaxis worked out at 5%.

Consider `CCOC(=O)CCCCCN1CCN2c3ccccc3Cc3ccccc3[C@H]2C1` [21 HCl S-isomer], for which, in the test with eosinophil accumulation, the inhibition at 0.1 mg/kg is 13%. The inhibition at 0.1 µg/mL in the test on eosinophil chemotaxis is 9%.

Turning to `CCOC(=O)CCCN1CCN2c3ccccc3Cc3ccccc3[C@H]2C1` [19 HCl S-isomer], the “Inhibitory effect (%) on accumulation of eosinophil” value in the test on eosinophil accumulation is on record as 41%. Also, in the test with eosinophil chemotaxis, the “Inhibitory effect (%) on chemotaxis of eosinophil” value is given as 1%.

`O=C(O)COCCN1CCN2c3ccc(Cl)cc3Cc3ccccc3C2C1` (stereo not drawn) [Example 9]: in test [1], the inhibition at 3.1 mg/kg is 63%.

Regarding `CCOC(=O)COCCN1CCN2c3ccc(Cl)cc3Cc3ccccc3C2C1` (stereo not drawn) [Example 4], the inhibition at 3.1 mg/kg in test [1] was determined as 63%.

As for `CCOC(=O)CCCN1CCN2c3ccccc3Cc3ccccc3[C@@H]2C1` [19 fumarate R-isomer], the inhibition at 0.1 mg/kg in the test on eosinophil accumulation was 62%. In the test with eosinophil chemotaxis, this molecule displayed an inhibition at 0.1 µg/mL of 55%.

For `O=C(O)CN1CCN2c3ccccc3Cn3cccc3C2C1` (stereo not drawn) [Prior art compound G, Sodium (1,3,4,14btetrahydro-2H,10H-pyrazino[1,2a]pyrrolo[2,1c][1,4]benzodiazepin-yl)acetate, reference compound], the inhibition at 3.1 mg/kg in test [1] came to 28%.

As to `CCOC(=O)CCCCCN1CCN2c3ccccc3Cc3ccccc3C2C1` (racemic) [21 HCl racemate], the inhibition at 0.1 mg/kg in the test with eosinophil accumulation is 37%. Further, the inhibition at 0.1 µg/mL in the test with eosinophil chemotaxis was 23%.

Regarding `O=C(O)CCCN1CCN2c3ccccc3Cc3ccccc3C2C1` (racemic) [22 HCl racemate], in the test on eosinophil accumulation, the “Inhibitory effect (%) on accumulation of eosinophil” value is recorded as 31%. Moreover, the “Inhibitory effect (%) on chemotaxis of eosinophil” value in the test with eosinophil chemotaxis came out at 6%.

In the test with eosinophil accumulation, `O=C(O)CCCCCN1CCN2c3ccccc3Cc3ccccc3C2C1` (racemic) [24 HCl racemate] yielded an inhibition at 0.1 mg/kg of 43%. This molecule registered an inhibition at 0.1 µg/mL with eosinophil chemotaxis of 25%.

For the molecule `CCCN(CCC)C(=O)COCCN1CCN2c3ccccc3Cc3ccccc3C2C1` (stereo not drawn) [Example 31, α-[2-(1,2,3,4,10,14b-Hexahydrodibenzo[c,f]pyrazino[1,2-a]azepin-2-yl)ethoxy]-N,N-dipropylacetamide], in test [1], the inhibition at 0.8 mg/kg stood at 32% and the inhibition at 3.1 mg/kg amounted to 76%.

Take `OCCCCCCN1CCN2c3ccccc3Cc3ccccc3C2C1` (stereo not drawn) [Example 18, 6-(1,2,3,4,10,14b-Hexahydrodibenzo[c,f]pyrazino[1,2-a]azepin-2-yl)hexanol]: the inhibition at 0.4 mg/kg in test [2] was found to be 100%.

On to `CCOC(=O)CCCN1CCN2c3ccccc3Cc3ccccc3C2C1` (racemic) [19 fumarate racemate], for which the “Inhibitory effect (%) on accumulation of eosinophil” value with eosinophil accumulation worked out at 24%. The same molecule showed an inhibition at 0.1 µg/mL with eosinophil chemotaxis of 3%.

In the test on eosinophil accumulation, `CCOC(=O)CCCN1CCN2c3ccccc3Cc3ccccc3[C@H]2C1` [19 fumarate S-isomer] showed an inhibition at 0.1 mg/kg of 32%. Further, in the test on eosinophil chemotaxis, the “Inhibitory effect (%) on chemotaxis of eosinophil” value is recorded as 0%.

In the test with eosinophil accumulation, `O=C(O)CCCCCN1CCN2c3ccccc3Cc3ccccc3[C@H]2C1` [24 HCl S-isomer] returned an inhibition at 0.1 mg/kg of 2%. In addition, the inhibition at 0.1 µg/mL with eosinophil chemotaxis worked out at 0%.
